Assay results: patent publication EP4796176A2, “METHOD OF ALLEVIATING JOINT PAIN” (OrthoTrophix, Inc., priority 2017, dated 2026)
Where no end group is shown, it is not given here.

System: subjects with bilateral patello-femoral knee osteoarthritis
Test: Randomized double-blind placebo-controlled clinical study, safety and tolerability
Type: in vivo, human
Method: A multicenter, randomized double-blind, placebo controlled study was designed to investigate the safety, tolerability, pharmacokinetics, and efficacy of TPX-100 administered in four weekly doses in subjects with bilateral patello-femoral knee osteoarthritis. The study was conducted under an open IND (investigational new drug application) at CDER (Center for Drug Evaluation and Research) of the U.S. FDA (The United States Food and Drug Administration) in compliance with GCP (Good Clinical Practice) and ICH (International Conference on Harmonization of Technical Requirements for Registration of Pharmaceuticals for Human Use) guidelines. Eighteen (18) orthopedic, rheumatologic and family practice centers in the U.S. participated in the study.
The study was divided into Part A and Part B. The Part A was to evaluate safety of intra-articular (I.A.) administration of TPX-100 at different dosing levels (20, 50, 100, or 200mg per injection in sequential cohorts) in the subjects with osteoarthritis of the knees and to select a dose adopted for the Part B. The Part B was to evaluate safety and efficacy of the selected dose of TPX-100.
Subjects in Part A enrolled in sequential cohorts were randomized to receive 20, 50, 100 or 200 mg of TPX-100 in one knee and identical placebo in the contralateral knee. Active and placebo assignments were randomized, with subject, site, and sponsor blinded as to treatment assignment. A Safety Review Committee (SRC) evaluated safety in each dosing cohort. The SRC assessed safety and dose-limiting toxicities, if evident, and determined whether the next higher dosing regimen might be enrolled. Part A were completed and analyzed with regard to safety prior to dose selection and initiation of Part B. […]
The 200mg dose was selected for Part B based on review and approval by the SRC. […] The combined final number of the subjects that were analyzed for the drug efficacy for 200mg dose of TPX-100 was 93.
On the first dosing day, the randomized subjects were assessed for their general health conditions by physical examinations and vital signs. […] Subjects were monitored for adverse events during the injections and for a few hours after the injections. Vital signs were also monitored after the injections.
Subjects returned to their respective study sites at 3, 6 and 12 months after the first dosing day for follow-up evaluations. In addition, the study sites monitored the subject's condition through telephone contact 9 months after the first dosing day. During the 3, 6, and 12 months post-treatment follow-up on-site visits, subjects were evaluated by physical examination, vital signs, serum chemistry, as well as KOOS. Adverse events and concomitant medications were also recorded. […]

With TDLQERGDNDISPFSGDGQPFKD-NH2 [TPX-100] the dose-limiting toxicities (Part A, 20, 50, 100 and 200 mg per injection, four weekly intra-articular injections) was “no dose-limiting toxicities”, the severe adverse events (throughout the study period) was “no severe adverse events likely or possibly related to the drug treatment” and the treatment-related adverse events (throughout the study period) was “mild or moderate, transient”. The safety and tolerability (throughout the study period (12 months)) was “safe and well tolerated”.
